For the test, the target named is T1, interaction between biotinylated human S100A9 and human RAGE-Fc (Homo sapiens, UniProt P06702).
T1 construct: made in house; host or cells: E. coli BL21(DE3)/pET1120 (pLR757)
T1 sequence (P06702 1-114): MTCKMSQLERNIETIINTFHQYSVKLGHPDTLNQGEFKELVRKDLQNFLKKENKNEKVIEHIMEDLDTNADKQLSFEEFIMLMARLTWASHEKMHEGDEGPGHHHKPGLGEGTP
Description: AlphaScreen inhibition assay, Biot-hS100A9:hRAGE-Fc (S100A9-RAGE inhibition assay). The class given is binding. The settings on record: biot-hS100A9 and rhRAGE-Fc, Ca2+ and Zn2+ in buffer. In outline:
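Biotinylated human S100A9, in HBS-P with CaCl2 and ZnCl2, preincubated 1 h at room temperature in the dark with compound (final DMSO ≤1.25%), then combined with rhRAGE-Fc on protein A Acceptor beads plus streptavidin Donor beads (20 μg/mL each). Protein levels batch-dependent; percent inhibition from AlphaScreen signal vs DMSO-only control.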

As for `O=C(CCC1CCCC1)NC1(C(F)(F)F)C(=O)Nc2nc3c(C(=O)O)cccc3n21` (stereo not drawn) [Example 160, 3-(3-cyclopentylpropanamido)-4-oxo-3-(trifluoromethyl)-2,5,7-triazatricyclo[6.4.0.0^2,6]dodeca-1(12),6,8,10-tetraene-9-carboxylic acid], the IC50 stood at 740 nM.
Take `COCCN(C)c1cccc(C(=O)NC2(C(F)(F)F)C(=O)Nc3nc4cc(Cl)c(Cl)cc4n32)n1` (stereo not drawn) [Example 94, N-[10,11-dichloro-4-oxo-3-(trifluoromethyl)-2,5,7-triazatricyclo[6.4.0.0^2,6]dodeca-1(8),6,9,11-tetraen-3-yl]-6-[(2-methoxyethyl)(methyl)amino]pyridine-2-carboxamide]: the IC50 was 1590 nM.
In the case of `COc1ccc(-c2cccc3c2nc2n3C(NC(=O)CCC3CCCC3)(C(F)(F)F)C(=O)N2)cc1` (single isomer, unassigned) [Example 230a, 3-cyclopentyl-N-[9-(4-methoxyphenyl)-4-oxo-3-(trifluoromethyl)-2,5,7-triazatricyclo[6.4.0.0^2,6]dodeca-1(12),6,8,10-tetraen-3-yl]propanamide], the IC50 turned out to be 260 nM.
Consider `O=C(NC1(C(F)(F)F)C(=O)Nc2nc3cc(Cl)c(Cl)cc3n21)c1cccc(NCCO)n1` (stereo not drawn) [Example 91, N-[10,11-dichloro-4-oxo-3-(trifluoromethyl)-2,5,7-triazatricyclo[6.4.0.0^2,6]dodeca-1(8),6,9,11-tetraen-3-yl]-6-[(2-hydroxyethyl)amino]pyridine-2-carboxamide], for which the IC50 was determined as 260 nM.
For `O=C(NC1(C(F)(F)F)C(=O)Nc2nc3cc(Cl)c(Cl)cc3n21)C1CCN(C(=O)CC(F)(F)F)CC1` (stereo not drawn) [Example 46, N-[10,11-dichloro-4-oxo-3-(trifluoromethyl)-2,5,7-triazatricyclo[6.4.0.0^2,6]dodeca-1(12),6,8,10-tetraen-3-yl]-1-(3,3,3-trifluoropropanoyl)piperidine-4-carboxamide], the IC50 is 3800 nM.
As to `Cc1cc2nc3n(c2cc1C)C(NC(=O)[C@@H]1CCCN1S(C)(=O)=O)(C(F)(F)F)C(=O)N3` (single isomer, unassigned) [Example 89], the IC50 was 5900 nM.
With `CC(C)CC(=O)N1CCC(C(=O)NC2(C(F)(F)F)C(=O)Nc3nc4cc(Cl)c(Cl)cc4n32)CC1` (stereo not drawn) [Example 45, N-[10,11-dichloro-4-oxo-3-(trifluoromethyl)-2,5,7-triazatricyclo[6.4.0.0^2,6]dodeca-1(12),6,8,10-tetraen-3-yl]-1-(3-methylbutanoyl)piperidine-4-carboxamide], the IC50 was 3000 nM.
As to `CC(C)CNc1nc(C(=O)NC2(C(F)(F)F)C(=O)Nc3nc4cc(Cl)c(Cl)cc4n32)cs1` (stereo not drawn) [Example 237, N-[10,11-dichloro-4-oxo-3-(trifluoromethyl)-2,5,7-triazatricyclo[6.4.0.0^2,6]dodeca-1(12),6,8,10-tetraen-3-yl]-2-[(2-methylpropyl)amino]-1,3-thiazole-4-carboxamide], the concentration for half-maximal inhibition (IC50) worked out at 1810 nM.
For the compound `Cc1cc2nc3n(c2cc1C)C(NC(=O)CCCC1CCCC1)(C(F)(F)F)C(=O)N3` (stereo not drawn) [Example 19, 4-cyclopentyl-N-[10,11-dimethyl-4-oxo-3-(trifluoromethyl)-2,5,7-triazatricyclo-[6.4.0.0^2,6]dodeca-1(8),6,9,11-tetraen-3-yl]butanamide], the IC50 came out at 400 nM.
With `O=C(NC1(C(F)(F)F)C(=O)Nc2nc3ccccc3n21)c1cc(Cl)cc(Cl)c1` (stereo not drawn) [Example 12, 3,5-dichloro-N-[4-oxo-3-(trifluoromethyl)-2,5,7-triazatricyclo[6.4.0.0^2,6]dodeca-1(12),6,8,10-tetraen-3-yl]benzamide], the IC50 was determined as 3000 nM.
For the compound `O=C(CCC1CCCC1)NC1(C(F)(F)F)C(=O)Nc2nc3cc(F)c(F)cc3n21` (stereo not drawn) [Example 73, 3-cyclopentyl-N-[10,11-difluoro-4-oxo-3-(trifluoromethyl)-2,5,7-triazatricyclo-[6.4.0.0^2,6]dodeca-1(12),6,8,10-tetraen-3-yl]propanamide], the IC50 amounted to 2800 nM.
As for `Cc1cc2nc3n(c2cc1C)C(NC(=O)[C@H](C)OCC1CCCC1)(C(F)(F)F)C(=O)N3` (single isomer, unassigned) [Example 215a], the IC50 is 1440 nM.
Consider `Cc1cc2nc3n(c2cc1C)C(NC(=O)CCC1CCCC1)(C(F)(F)F)C(=O)N3` (single isomer, unassigned) [Example 218b, 3-cyclopentyl-N-[10,11-dimethyl-4-oxo-3-(trifluoromethyl)-2,5,7-triazatricyclo[6.4.0.0^2,6]dodeca-1(12),6,8,10-tetraen-3-yl]propanamide], for which the IC50 is 730 nM.
In the case of `O=C(CCC1CCCC1)NC1(C(F)(F)F)C(=O)Nc2nc3c(C(=O)O)cc(Cl)cc3n21` (stereo not drawn) [Example 233, 11-chloro-3-(3-cyclopentylpropanamido)-4-oxo-3-(trifluoromethyl)-2,5,7-triazatricyclo[6.4.0.0^2,6]dodeca-1(12),6,8,10-tetraene-9-carboxylic acid] it was 490 nM; in that of `O=C(CCC1CCCC1)NC1(C(F)(F)F)C(=O)Nc2nc3c(Cl)c(Cl)ccc3n21` (stereo not drawn) [Example 83, 3-cyclopentyl-N-[9,10-dichloro-4-oxo-3-(trifluoromethyl)-2,5,7-triazatricyclo[6.4.0.0^2,6]-dodeca-1(12),6,8,10-tetraen-3-yl]propanamide], 600 nM; in that of `Cc1cc2nc3n(c2cc1C)C(NC(=O)c1cccc(NC2CCCCC2)n1)(C(F)(F)F)C(=O)N3` (stereo not drawn) [Example 35, 6-(cyclohexylamino)-N-[10,11-dimethyl-4-oxo-3-(trifluoromethyl)-2,5,7-triazatricyclo-[6.4.0.0^2,6]dodeca-1(12),6,8,10-tetraen-3-yl]pyridine-2-carboxamide], 2700 nM.
On to `O=C(CCc1ccccc1)NC1(C(F)(F)F)C(=O)Nc2nc3cc(Cl)c(Cl)cc3n21` (stereo not drawn) [Example 37, N-[10,11-dichloro-4-oxo-3-(trifluoromethyl)-2,5,7-triazatricyclo[6.4.0.0^2,6]dodeca-1(8),6,9,11-tetraen-3-yl]-3-phenylpropanamide], for which the IC50 was determined as 800 nM.
Regarding `Cc1cc2nc3n(c2cc1C)C(NC(=O)[C@H](C)OCC1CCCC1)(C(F)(F)F)C(=O)N3` (single isomer, unassigned) [Example 215b], the IC50 was found to be 2660 nM.
Regarding `O=C(NC1(C(F)(F)F)C(=O)Nc2nc3cc(Cl)c(Cl)cc3n21)C1CCCCC1` (stereo not drawn) [Example 55, N-[10,11-dichloro-4-oxo-3-(trifluoromethyl)-2,5,7-triazatricyclo[6.4.0.0^2,6]dodeca-1(12),6,8,10-tetraen-3-yl]cyclohexanecarboxamide], the IC50 is 1700 nM.
`O=C(NC1(C(F)(F)F)C(=O)Nc2nc3cc(Cl)c(Cl)cc3n21)C1(F)CNC1` (stereo not drawn) [Example 103, N-[10,11-dichloro-4-oxo-3-(trifluoromethyl)-2,5,7-triazatricyclo[6.4.0.0^2,6]dodeca-1(8),6,9,11-tetraen-3-yl]-3-fluoroazetidine-3-carboxamide]: the IC50 stood at 3970 nM.
Turning to `O=C(NC1(C(F)(F)F)C(=O)Nc2nc3cc(Cl)c(Cl)cc3n21)c1cccc(NC2CCCCC2)n1` (stereo not drawn) [Example 66, 6-(cyclohexylamino)-N-[10,11-dichloro-4-oxo-3-(trifluoromethyl)-2,5,7-triazatricyclo-[6.4.0.0^2,6]dodeca-1(12),6,8,10-tetraen-3-yl]pyridine-2-carboxamide], the IC50 turned out to be 400 nM.
Turning to `O=C(NC1(C(F)(F)F)C(=O)Nc2nc3cc(Cl)c(Cl)cc3n21)C1CCN(C(=O)C2CCCC2)C1` (racemic) [Example 50, (rac).1-cyclopentanecarbonyl-N-[10,11-dichloro-4-oxo-3-(trifluoromethyl)-2,5,7-triaza-tricyclo[6.4.0.0^2,6]dodeca-1(12),6,8,10-tetraen-3-yl]pyrrolidine-3-carboxamide], the half-maximal inhibitory concentration (IC50) came out at 2300 nM.
With `CN(C)c1cccc(C(=O)NC2(C(F)(F)F)C(=O)Nc3nc4cc(Cl)c(Cl)cc4n32)n1` (stereo not drawn) [Example 65, N-[10,11-dichloro-4-oxo-3-(trifluoromethyl)-2,5,7-triazatricyclo[6.4.0.0^2,6]dodeca-1(12),6,8,10-tetraen-3-yl]-6-(dimethylamino)pyridine-2-carboxamide] the figure was 2200 nM.
As to `O=C(CCC1CCCC1)NC1(C(F)(F)F)C(=O)Nc2nc3c(-c4ccc(Cl)cc4)cccc3n21` (stereo not drawn) [Example 201, N-[9-(4-chlorophenyl)-4-oxo-3-(trifluoromethyl)-2,5,7-triazatricyclo[6.4.0.0^2,6]dodeca-1(12),6,8,10-tetraen-3-yl]-3-cyclopentylpropanamide], the IC50 is 850 nM.
